Measured values reported in the SangsterLogP compilation.

assay: method code SF, from DOI: 10.1063/1.555833

| Compound | logP |
| --- | --- |
| CCc1nn(-c2ccccc2)c(N)c1-c1ccc(OC)c(OC)c1 | 2.82 |
| COc1ccc(-c2cn[nH]c2N)cc1OC | 0.85 |
| COc1ccc(-c2c(C)n[nH]c2N)cc1OC | 1.33 |
| CCc1n[nH]c(N)c1-c1ccc(OC)c(OC)c1 | 1.37 |
| COc1ccc(-c2c(C)noc2N)cc1OC | 1.53 |
| Nc1c(-c2ccccc2)cnn1-c1ccccc1 | 2.52 |
| Nc1[nH]nc(Cc2ccccc2)c1-c1ccccc1 | 2.39 |
| CC(=O)n1cc(C2=C(O)C(C)(C)CCC2=O)c2ccccc21 | 2.16 |
| O=C1Cc2ccccc2C(c2ccc([N+](=O)[O-])cc2)N1 (configuration not stated) | 2.48 |
| CCc1n[nH]c(N)c1-c1ccccc1 | 1.96 |
| Cc1cc2c(c3c1[nH]c1ccccc13)C(=O)CC(C)(C)C2 | 3.58 |
| COc1ccc(-c2cnoc2N)cc1OC | 0.48 |
| COc1ccc(Cc2nc3ccccc3c(=O)n2N)cc1OC | 1.94 |
| O=C(NCCCCCCNC(=O)c1ccccc1O)c1ccccc1O | 2.85 |
| CCCCN1C(=O)c2ccc([N+](=O)[O-])cc2C1=O | 2.26 |
| Cc1nn(-c2ccccc2)c(N)c1-c1ccccc1 | 2.92 |

assay: not given

| Compound | logP |
| --- | --- |
| O=c1[nH]c2ccccc2n1CCCN1CCN(C(c2ccccc2)c2ccccc2)CC1 | 2.73 |
